Reference: patent publication US20150307554A1, “NTS-POLYPLEX NANOPARTICLES SYSTEM FOR GENE THERAPY OF CANCER” (priority 2011, published 2015)

What was measured:
MCF7 cells = test: Internalization of NTS-polyplex via NTSR1 endocytosis with blocking assays, MCF7; format: cell-based, human; details: NTS 1 μM, SR48692 500 nM, sucrose 0.45 M
Procedure: (§1) The cytoplasm was stained with calcein AM (green). Cells were analyzed by confocal multi spectral imaging system TCS-SPE (Leica Mycrosystems, Wetzlar, Germany). The fluorescence was detected under the following conditions Ex/Em: 405/430 nm for the blue channel with UV light; 488/512-573 nm for the green channel with an argon laser; and 563/563-544 for the red channel with a Helium-Neon laser. We obtained 10 to 20 consecutive optical sections of 1 μm apart in the z series.

MDA-MB-231 cells = test: Internalization of NTS-polyplex via NTSR1 endocytosis with blocking assays, MDA-MB-231; format: cell-based, human; details: NTS 1 μM, SR48692 500 nM, sucrose 0.45 M
Procedure: as §1

Compound: COc1cccc(OC)c1-c1cc(C(=O)NC2(C(=O)O)C3CC4CC(C3)CC2C4)nn1-c1ccnc2cc(Cl)ccc12 (stereo not shown) [SR48692]
- blocking of NTS-polyplex internalization (MCF7 cells): prevented the entrance of NTS-polyplex
- blocking of NTS-polyplex internalization (MDA-MB-231 cells): prevented the entrance of NTS-polyplex

Compound: OC[C@H]1O[C@@](CO)(O[C@H]2O[C@H](CO)[C@@H](O)[C@H](O)[C@H]2O)[C@@H](O)[C@@H]1O [sucrose]
- blocking of NTS-polyplex internalization (MCF7 cells): blocked
- blocking of NTS-polyplex internalization (MDA-MB-231 cells): blocked
